With `CSc1c(C(N)=S)nn(-c2c(Cl)cc(C(F)(F)F)cc2Cl)c1N`, the melting point worked out at 161 °C.

In turn, `CC[S+]([O-])c1c(C(N)=S)nn(-c2c(Cl)cc(C(F)(F)F)cc2Br)c1N` (stereo not shown) came in with a melting point of 113.5 °C.

For `CC[S+]([O-])c1c(C(N)=S)nn(-c2c(Cl)cc(OC(F)(F)F)cc2Cl)c1N` (stereo not shown), the melting point turned out to be 102 °C.

As for `NC(=S)c1nn(-c2c(Cl)cc(C(F)(F)F)cc2Cl)c(N)c1SC(F)(F)F`, the melting point came out at 182 °C.

`C[S+]([O-])c1c(C(N)=S)nn(-c2c(Cl)cc(C(F)(F)F)cc2Cl)c1N` (stereo not shown) came in with a melting point of 192 °C.

As to `CS(=O)(=O)c1c(C(N)=S)nn(-c2c(Cl)cc(C(F)(F)F)cc2Cl)c1N`, the melting point was 231 °C.

Turning to `C[S+]([O-])c1c(C(N)=S)nn(-c2c(Cl)cc(C(F)(F)F)cc2Br)c1N` (stereo not shown), the melting point turned out to be 188.5 °C.

`C[S+]([O-])c1c(C(N)=S)nn(-c2c(Cl)cc(OC(F)(F)F)cc2Cl)c1N` (stereo not shown) returned a melting point of 137 °C.

The compound `CC[S+]([O-])c1c(C(N)=S)nn(-c2c(Cl)cc(C(F)(F)F)cc2Cl)c1N` (stereo not shown) had a melting point of 167 °C.

Compound `C[S+]([O-])c1c(C(N)=S)nn(-c2ccc(C(F)(F)F)cc2Cl)c1N` (stereo not shown) had a melting point of 153.5 °C.
